From patent EP0908457B1, “3-(1,2-benzisothiazol- and isoxazol-5-Y1)-2,4(1H,3H)-pyrimidinedione or thione and 3-(1,2-benzisothiazol- and isoxazol-5-y1)-4(3H)-pyrimidinone or thione herbicidal agents” (BASF AKTIENGESELLSCHAFT, priority 1997, dated 1999)

Tests used:
Sagittaria pygmaea, L. = experiment: Preemergence weed control under flooded paddy conditions, SAGPY (Arrowhead (Pygmaea)); format: in vivo; settings: flooded paddy
[1] = tested on: Oryza sativa, (L.) Tebonnet; experiment: Rice tolerance to post-transplant applications under flooded paddy conditions (Example 187), ORYSAT (Rice, Tebonnet)
[2] = tested on: Echinochloa oryzoides (Ard.) Fritsch.; experiment: Preemergence weed control under flooded paddy conditions, ECHORC (Watergrass (Calif.)); format: in vivo; settings: flooded paddy
[3] = tested on: Cyperus serotinus, Rottb.; experiment: Preemergence weed control under flooded paddy conditions, CYPSE (Flatsedge); format: in vivo
Cyperus iria = experiment: Preemergence weed control under flooded paddy conditions, CYPIR (Rice Flatsedge); format: in vivo; settings: flooded paddy
[4] = tested on: Monochoria vaginalis, Presl.; experiment: Preemergence weed control under flooded paddy conditions, MOOVA (Monochoria); format: in vivo; settings: flooded paddy
[5] = Rate 0.0320 kg/ha, preemergence, rated 3-4 weeks after treatment
[6] = Rate 0.0620 kg/ha, preemergence, rated 3-4 weeks after treatment
[7] = Rate 0.1250 kg/ha, preemergence, rated 3-4 weeks after treatment
[8] = Rate 0.2500 kg/ha, preemergence, rated 3-4 weeks after treatment
[9] = Rate 0.5000 kg/ha, preemergence, rated 3-4 weeks after treatment
[10] = Rate 0.0320 kg/ha, preemergence, rated three to four weeks after treatment
[11] = Rate 0.0620 kg/ha, preemergence, rated three to four weeks after treatment
[12] = Rate 0.1250 kg/ha, preemergence, rated three to four weeks after treatment
[13] = Rate 0.2500 kg/ha, preemergence, rated three to four weeks after treatment
[14] = Rate 0.0320 kg/ha, rated three to four weeks after treatment
[15] = Rate 0.0620 kg/ha, rated three to four weeks after treatment
[16] = Rate 0.1250 kg/ha, rated three to four weeks after treatment
[17] = Rate 0.2500 kg/ha, rated three to four weeks after treatment
[18] = Rate 0.0320 kg/ha, preemergence weeds, rated three to four weeks after treatment
[19] = Rate 0.0620 kg/ha, preemergence weeds, rated three to four weeks after treatment
[20] = Rate 0.1250 kg/ha, preemergence weeds, rated three to four weeks after treatment
[21] = Rate 0.2500 kg/ha, preemergence weeds, rated three to four weeks after treatment
Also: meaning of each grade not given here.

C=CS(=O)(=O)NC(=O)COc1ccc(C)cc1-c1nsc2ccc(-n3c(=O)cc(C(F)(F)F)n(C)c3=O)cc12 [Example 553, Acetamide, 2-{{2-{5-[3,6-dihydro-3-methyl-2,6-dioxo-4-(trifluoromethyl)-1(2H)-pyrimidinyl]-1,2-benzisothiazol-3-yl}-p-tolyl}oxy}-N-(vinylsulfonyl)-]
herbicidal effect rating, SAGPY (Sagittaria pygmaea, L.; [5]): 0.0
herbicidal effect rating, SAGPY (Sagittaria pygmaea, L.; [6]): 0.0
herbicidal effect rating, SAGPY (Sagittaria pygmaea, L.; [7]): 0.0
herbicidal effect rating, SAGPY (Sagittaria pygmaea, L.; [8]): 0.0
herbicidal effect rating, SAGPY (Sagittaria pygmaea, L.; [9]): 0.0
herbicidal effect rating ORYSAT ([1]; Rate 0.0320 kg/ha, rated 3-4 weeks after treatment): 3.0
herbicidal effect rating ORYSAT ([1]; Rate 0.0620 kg/ha, rated 3-4 weeks after treatment): 4.0
herbicidal effect rating ORYSAT ([1]; Rate 0.1250 kg/ha, rated 3-4 weeks after treatment): 4.0
herbicidal effect rating ORYSAT ([1]; Rate 0.2500 kg/ha, rated 3-4 weeks after treatment): 6.0
herbicidal effect rating ORYSAT ([1]; Rate 0.5000 kg/ha, rated 3-4 weeks after treatment): 4.0
herbicidal effect rating, ECHORC [2, 5]: 1.3
herbicidal effect rating, ECHORC [2, 6]: 2.1
herbicidal effect rating, ECHORC [2, 7]: 6.4
herbicidal effect rating, ECHORC [2, 8]: 9.0
herbicidal effect rating, ECHORC [2, 9]: 7.0
herbicidal effect rating, CYPSE [3, 5]: 0.0
herbicidal effect rating, CYPSE [3, 6]: 0.0
herbicidal effect rating, CYPSE [3, 8]: 2.0
herbicidal effect rating, CYPSE [3, 9]: 9.0
herbicidal effect rating, CYPIR (Cyperus iria; [5]): 2.0
herbicidal effect rating, CYPIR (Cyperus iria; [6]): 6.0
herbicidal effect rating, CYPIR (Cyperus iria; [7]): 7.0
herbicidal effect rating, CYPIR (Cyperus iria; [8]): 9.0
herbicidal effect rating, CYPIR (Cyperus iria; [9]): 4.0
herbicidal effect rating, MOOVA [4, 5]: 7.0
herbicidal effect rating, MOOVA [4, 6]: 9.0
herbicidal effect rating, MOOVA [4, 7]: 9.0
herbicidal effect rating, MOOVA [4, 8]: 9.0
herbicidal effect rating, MOOVA [4, 9]: 9.0

Cn1c(C(F)(F)F)cc(=O)n(-c2ccc3snc(COCc4ccc(Cl)cc4Cl)c3c2)c1=O [Example 585, 2,4(1H,3H)-Pyrimidinedione, 3-{3-{[(2,4-dichlorobenzyl)oxy]methyl}-1,2-benzisothiazol-5-yl}-1-methyl-6-(trifluoromethyl)-]
herbicidal effect rating, SAGPY (Sagittaria pygmaea, L.; [10]): 0.0
herbicidal effect rating, SAGPY (Sagittaria pygmaea, L.; [11]): 1.5
herbicidal effect rating, SAGPY (Sagittaria pygmaea, L.; [12]): 2.0
herbicidal effect rating, SAGPY (Sagittaria pygmaea, L.; [13]): 2.5
herbicidal effect rating ORYSAT [1, 14]: 1.0
herbicidal effect rating ORYSAT [1, 15]: 1.5
herbicidal effect rating ORYSAT [1, 16]: 1.5
herbicidal effect rating ORYSAT [1, 17]: 1.5
herbicidal effect rating, ECHORC [2, 10]: 5.0
herbicidal effect rating, ECHORC [2, 11]: 8.5
herbicidal effect rating, ECHORC [2, 12]: 8.5
herbicidal effect rating, ECHORC [2, 13]: 9.0
herbicidal effect rating, CYPSE [3, 10]: 0.0
herbicidal effect rating, CYPSE [3, 11]: 0.0
herbicidal effect rating, CYPSE [3, 12]: 0.0
herbicidal effect rating, CYPSE [3, 13]: 3.0
herbicidal effect rating, CYPIR (Cyperus iria; [10]): 2.5
herbicidal effect rating, CYPIR (Cyperus iria; [11]): 8.5
herbicidal effect rating, CYPIR (Cyperus iria; [12]): 9.0
herbicidal effect rating, CYPIR (Cyperus iria; [13]): 9.0
herbicidal effect rating, MOOVA [4, 10]: 3.5
herbicidal effect rating, MOOVA [4, 11]: 3.5
herbicidal effect rating, MOOVA [4, 12]: 4.5
herbicidal effect rating, MOOVA [4, 13]: 9.0

CN(O)C(=O)COc1ccccc1-c1nsc2ccc(-n3c(=O)cc(C(F)(F)F)n(C)c3=O)cc12 [Example 336, Acetohydroxamic acid, 2-{o-{5-[3,6-dihydro-3-methyl-2,6-dioxo-4-(trifluoromethyl)-1(2H)-pyrimidinyl]-1,2-benzisothiazol-3-yl}phenoxy}-N-methyl-]
herbicidal effect rating, SAGPY (Sagittaria pygmaea, L.; [18]): 0.0
herbicidal effect rating, SAGPY (Sagittaria pygmaea, L.; [19]): 0.0
herbicidal effect rating, SAGPY (Sagittaria pygmaea, L.; [20]): 1.0
herbicidal effect rating, SAGPY (Sagittaria pygmaea, L.; [21]): 9.0
herbicidal effect rating ORYSAT [1, 14]: 2.0
herbicidal effect rating ORYSAT [1, 15]: 4.5
herbicidal effect rating ORYSAT [1, 16]: 4.5
herbicidal effect rating ORYSAT [1, 17]: 9.0
herbicidal effect rating, ECHORC [2, 18]: 6.5
herbicidal effect rating, ECHORC [2, 19]: 9.0
herbicidal effect rating, ECHORC [2, 20]: 9.0
herbicidal effect rating, ECHORC [2, 21]: 9.0
herbicidal effect rating, CYPSE [3, 18]: 0.0
herbicidal effect rating, CYPSE [3, 19]: 0.0
herbicidal effect rating, CYPSE [3, 20]: 2.0
herbicidal effect rating, CYPSE [3, 21]: 3.0
herbicidal effect rating, CYPIR (Cyperus iria; [18]): 0.0
herbicidal effect rating, CYPIR (Cyperus iria; [19]): 1.0
herbicidal effect rating, CYPIR (Cyperus iria; [20]): 4.0
herbicidal effect rating, CYPIR (Cyperus iria; [21]): 9.0
herbicidal effect rating, MOOVA [4, 18]: 9.0
herbicidal effect rating, MOOVA [4, 19]: 9.0
herbicidal effect rating, MOOVA [4, 20]: 9.0
herbicidal effect rating, MOOVA [4, 21]: 9.0

Cn1c(C(F)(F)F)cc(=O)n(-c2ccc3snc(C(=O)Nc4cc(C(C)(C)C)on4)c3c2)c1=O [Example 331, 1,2-Benzisothiazole-3-carboxamide, N-(5-tert-butylisoxazol-3-yl)-5-[3,6-dihydro-3-methyl-2,6-dioxo-4-(trifluoromethyl)-1(2H)-pyrimidinyl]-]
herbicidal effect rating, SAGPY (Sagittaria pygmaea, L.; [18]): 0.0
herbicidal effect rating, SAGPY (Sagittaria pygmaea, L.; [19]): 0.0
herbicidal effect rating, SAGPY (Sagittaria pygmaea, L.; [20]): 0.0
herbicidal effect rating, SAGPY (Sagittaria pygmaea, L.; [21]): 0.0
herbicidal effect rating ORYSAT [1, 14]: 0.0
herbicidal effect rating ORYSAT [1, 15]: 0.0
herbicidal effect rating ORYSAT [1, 16]: 0.0
herbicidal effect rating ORYSAT [1, 17]: 1.0
herbicidal effect rating, ECHORC [2, 18]: 0.0
herbicidal effect rating, ECHORC [2, 19]: 2.0
herbicidal effect rating, ECHORC [2, 20]: 4.0
herbicidal effect rating, ECHORC [2, 21]: 8.0
herbicidal effect rating, CYPSE [3, 18]: 0.0
herbicidal effect rating, CYPSE [3, 19]: 0.0
herbicidal effect rating, CYPSE [3, 20]: 0.0
herbicidal effect rating, CYPSE [3, 21]: 0.0
herbicidal effect rating, CYPIR (Cyperus iria; [18]): 0.0
herbicidal effect rating, CYPIR (Cyperus iria; [19]): 0.0
herbicidal effect rating, CYPIR (Cyperus iria; [20]): 5.0
herbicidal effect rating, CYPIR (Cyperus iria; [21]): 9.0
herbicidal effect rating, MOOVA [4, 18]: 9.0
herbicidal effect rating, MOOVA [4, 19]: 9.0
herbicidal effect rating, MOOVA [4, 20]: 9.0
herbicidal effect rating, MOOVA [4, 21]: 9.0

Cn1c(C(F)(F)F)cc(=O)n(-c2cc3c(CC#N)nsc3cc2F)c1=O [Example 379, 1,2-Benzisothiazole-3-acetonitrile, 5-[3,6-dihydro-3-methyl-2,6-dioxo-4-(trifluoromethyl)-1(2H)-pyrimidinyl]-6-fluoro-]
herbicidal effect rating, SAGPY (Sagittaria pygmaea, L.; [10]): 3.5
herbicidal effect rating, SAGPY (Sagittaria pygmaea, L.; [11]): 6.5
herbicidal effect rating, SAGPY (Sagittaria pygmaea, L.; [12]): 9.0
herbicidal effect rating, SAGPY (Sagittaria pygmaea, L.; [13]): 9.0
herbicidal effect rating ORYSAT [1, 14]: 7.0
herbicidal effect rating ORYSAT [1, 15]: 8.5
herbicidal effect rating ORYSAT [1, 16]: 9.0
herbicidal effect rating ORYSAT [1, 17]: 9.0
herbicidal effect rating, ECHORC [2, 10]: 2.0
herbicidal effect rating, ECHORC [2, 11]: 5.0
herbicidal effect rating, ECHORC [2, 12]: 7.5
herbicidal effect rating, ECHORC [2, 13]: 8.0
herbicidal effect rating, CYPSE [3, 10]: 2.5
herbicidal effect rating, CYPSE [3, 11]: 6.5
herbicidal effect rating, CYPSE [3, 12]: 8.5
herbicidal effect rating, CYPSE [3, 13]: 8.5
herbicidal effect rating, CYPIR (Cyperus iria; [10]): 5.5
herbicidal effect rating, CYPIR (Cyperus iria; [11]): 7.5
herbicidal effect rating, CYPIR (Cyperus iria; [12]): 9.0
herbicidal effect rating, CYPIR (Cyperus iria; [13]): 9.0
herbicidal effect rating, MOOVA [4, 10]: 9.0
herbicidal effect rating, MOOVA [4, 11]: 9.0
herbicidal effect rating, MOOVA [4, 12]: 9.0
herbicidal effect rating, MOOVA [4, 13]: 9.0
